Test system: murine breast cancer stem cells
Test: Clonogenic ability of murine breast cancer stem cells (colony number)
Format: cell-based
Conditions: short, 24 hour exposure to the inhibitor; p<0.02, t test
Experimental: Many of these genes have been linked to self renewal and cancer. These include the insulin growth factor binding partner IGFBP3, the HOX family members HOXA3, HOXA5, ME1S1 as well as transcription factors like ETS1, ETS2, RUNX2 and STAT3. It was tested whether the transcription factor STAT3 is a bona fide cancer stem cell regulator. STAT3 plays a role in the maintenance of both ES cells and HSCs. […] Next, when we examined immunochemistry analysis of breast tumors the STAT3 positive cells tended to be concentrated on the invasive edge of the cancer and the protein was not seen in the more differentiated-looking cells in the interior parts of tumors. Finally, there are small molecule inhibitors of STAT3. Such inhibitors can be tested in cancer stem cell models. The effect of the STAT3 inhibitor cucurbitacin on the clonogenic ability of murine breast cancer stem cells was tested.

cucurbitacin was tested, and the “reduction of the number of colonies” value was about 50%.
